This is an account of results in patent US9902728B2, “Pyrrolo and pyrazolopyrimidines as ubiquitin-specific protease 7 inhibitors” (Forma Therapeutics, Inc., priority 2014, dated 2018).

pIC50: −log10 of the molar value.

The target in the first test is T1, USP7 (Homo sapiens, UniProt Q93009).
T1 construct: USP7, construct USP7 (208-1102) 6*His, Viva Biotech; 6xHis (C); purchased Viva Biotech
T1 sequence (Q93009 208-1102): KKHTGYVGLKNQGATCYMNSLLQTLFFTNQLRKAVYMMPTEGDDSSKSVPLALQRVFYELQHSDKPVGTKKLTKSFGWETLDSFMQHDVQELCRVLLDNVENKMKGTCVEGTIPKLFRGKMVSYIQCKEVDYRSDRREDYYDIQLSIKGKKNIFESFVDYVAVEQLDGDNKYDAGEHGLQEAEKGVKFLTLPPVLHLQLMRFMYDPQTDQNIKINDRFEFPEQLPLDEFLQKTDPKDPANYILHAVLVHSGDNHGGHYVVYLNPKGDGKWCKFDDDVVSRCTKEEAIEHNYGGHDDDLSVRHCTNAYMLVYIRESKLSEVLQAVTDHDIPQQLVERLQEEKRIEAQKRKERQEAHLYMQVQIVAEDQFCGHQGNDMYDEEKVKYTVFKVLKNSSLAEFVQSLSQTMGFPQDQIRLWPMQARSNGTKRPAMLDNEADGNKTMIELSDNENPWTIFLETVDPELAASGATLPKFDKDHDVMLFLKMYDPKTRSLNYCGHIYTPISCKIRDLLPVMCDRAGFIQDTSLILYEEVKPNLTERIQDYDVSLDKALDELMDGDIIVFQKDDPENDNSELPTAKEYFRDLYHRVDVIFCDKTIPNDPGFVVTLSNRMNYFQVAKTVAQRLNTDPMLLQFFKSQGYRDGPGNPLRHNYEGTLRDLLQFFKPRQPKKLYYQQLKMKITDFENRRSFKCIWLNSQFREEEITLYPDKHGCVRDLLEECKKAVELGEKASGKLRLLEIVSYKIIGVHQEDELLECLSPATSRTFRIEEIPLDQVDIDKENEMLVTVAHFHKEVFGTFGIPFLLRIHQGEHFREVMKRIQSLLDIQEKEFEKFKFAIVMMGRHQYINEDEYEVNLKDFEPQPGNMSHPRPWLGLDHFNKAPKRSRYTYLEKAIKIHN
The test can be described thus: USP7 Assay A (Ubitquin-Rhodamine 110 Assay). The class given is biochemical. The following applies: USP7 activity in USP7 assay A and B (table does not say which assay per compound); read-out: USP7_IC50. As to the method: Each assay was performed in a final volume of 15 μL in assay buffer containing 20 mM Tris-HCl (pH 8.0, (1M Tris-HCl, pH 8.0 solution; Corning 46-031-CM)), 1 mM GSH (L-Glutathione reduced; Sigma #G4251), 0.03% BGG ([…], Sigma, #G7516-25G), and 0.01% Triton X-100 (Sigma, #T9284-10L). […] 5 μL of 2× enzyme was added to assay plates (pre-stamped with compound) preincubated with USP7 for 30 minutes and then 5 μL of 2×Ub-Rh110 was added to assay plates. […] Fluorescence was read on the Envision (Excitation at 485 nm and Emission at 535 nm; Perkin Elmer) or on the PheraSTAR (Excitation at 485 nm and Emission at 535 nm; BMG Labtech).
Data from USP7 Assays A and B were reported as percent inhibition (inh) compared with control wells based on the following equation: % inh=1−((FLU−AveLow)/(AveHigh−AveLow)) where FLU=measured Fluorescence (See Tables 6-10). AveLow=average Fluorescence of no enzyme control (n=16). AveHigh=average Fluorescence of DMSO control (n=16). […] Data is fitted using the Levenburg Marquardt algorithm.
In the case of `Cc1cnn([C@@H](CC(=O)N2CCC(O)(Cn3cnc4c(cnn4-c4ccc(F)cc4)c3=O)CC2)C(F)F)c1` (single isomer, unassigned) [Compound I-736], the pIC50 was less than 5.00. In the case of `CN1CCN(c2ccc(-n3ncc4c(=O)n(CC5(O)CCN(C(=O)C[C@@H](C(F)F)n6cccn6)CC5)cnc43)cc2)CC1` (single isomer, unassigned) [Compound I-827], the pIC50 was 5.00 to 6.00.

`Cn1ccc2c(=O)n(CC3(O)CCN(C(=O)CC(C(F)F)n4ccc(F)n4)CC3)cnc21` (single isomer, unassigned) [Compound I-1695]: the pIC50 is greater than 6.70. Same read-out and setting: under `Cn1ccc2c(=O)n(CC3(O)CCN(C(=O)CC(C(F)F)n4ccc(F)n4)CC3)cnc21` (single isomer, unassigned) [Compound I-1696] stands less than 5.00. As for `Cn1ncc2c(=O)n(CC3(O)CCN(C(=O)CC(C(F)F)n4ccc(F)n4)CC3)cnc21` (single isomer, unassigned) [Compound I-1697], the pIC50 is greater than 6.70. With `Cn1ncc2c(=O)n(CC3(O)CCN(C(=O)CC(C(F)F)n4ccc(F)n4)CC3)cnc21` (single isomer, unassigned) [Compound I-1698], the pIC50 is less than 5.00. For the compound `O=C(C1CCC(Nc2cccnc2F)CC1)N1CCC(O)(Cn2cnc3c(cnn3-c3ccccc3)c2=O)CC1` (single isomer, unassigned) [Compounds I-1039], the pIC50 is 6.00 to 6.70. Same read-out and setting: under `COC1CCC(Oc2ccc(-n3ncc4c(=O)n(CC5(O)CCN(C(=O)C6(C)CC6)CC5)cnc43)cc2)CC1` (single isomer, unassigned) [Compounds I-1116] stands 6.00 to 6.70.

The same test, now with this note: USP7 assay A and B (table does not say which assay per compound); Ubiquitin-Rhodamine 110 substrate; read-out: USP7_IC50.
Consider `CC(CC(=O)N1CCC(O)(Cn2cnc3c(cnn3C)c2=O)CC1)c1ccccc1` (stereo not shown) [Compound I-1, 5-((4-Hydroxy-1-(3-phenylbutanoyl)piperidin-4-yl)methyl)-1-methyl-1,5-dihydro-4H-pyrazolo[3,4-d]pyrimidin-4-one], for which the pIC50 is 6.00 to 6.70. Regarding `Cn1ncc2c(=O)n(CC3(O)CCN(C(=O)c4ccc(-c5ccc(C(=O)N6CCCCC6)cc5)cc4Cl)CC3)cnc21` [Compound I-55], the pIC50 was 5.00 to 6.00.

The test is the same for the next values; noted with them: USP7 assay A and B (table does not say which assay per compound); read-out: USP7_IC50.
Take `C[C@@H](CC(=O)N1CCC(O)(Cn2cnc3c(cnn3-c3ccc(F)cc3)c2=O)CC1)n1cc2c(n1)CCC2` (single isomer, unassigned) [Compound I-519]: the pIC50 is less than 5.00. Still for that read-out and setting: under `C[C@](O)(c1ccc(C(=O)N2CCC(O)(Cn3cnc4c(cnn4-c4ccc(F)cc4)c3=O)CC2)cc1)C(F)(F)F` (single isomer, unassigned) [Compound I-528] stands 5.00 to 6.00; under `COc1ccc(C(=O)N2CCC(O)(C(C)n3cnc4c(cnn4-c4ccc(F)cc4)c3=O)CC2)cc1` (single isomer, unassigned) [Compound I-615], 6.00 to 6.70; under `COC1(C)CCN(c2cc(-n3ncc4c(=O)n(CC5(O)CCN(C(=O)C6CC6)CC5)cnc43)ccc2F)C1` (single isomer, unassigned) [Compound I-971], 6.00 to 6.70. `C[S+]([O-])c1ccc(-n2ncc3c(=O)n(CC4(O)CCN(C(=O)c5ccc(F)cc5)CC4)cnc32)cc1` (single isomer, unassigned) [Compound I-995, 5-((1-(4-fluorobenzoyl)-4-hydroxypiperidin-4-yl)methyl)-1-(4-(methylsulfinyl)phenyl)-1H-pyrazolo[3,4-d]pyrimidin-4(5H)-one]: the pIC50 was 5.00 to 6.00.

On to `C[S+]([O-])c1ccc(-n2ncc3c(=O)n(CC4(O)CCN(C(=O)c5ccc(F)cc5)CC4)cnc32)cc1` (single isomer, unassigned) [Compound I-996, 5-((1-(4-fluorobenzoyl)-4-hydroxypiperidin-4-yl)methyl)-1-(4-(methylsulfinyl)phenyl)-1H-pyrazolo[3,4-d]pyrimidin-4(5H)-one], for which the pIC50 is 5.00 to 6.00.

On to `CS(=N)(=O)c1ccc(-n2ncc3c(=O)n(CC4(O)CCN(C(=O)c5ccc(F)cc5)CC4)cnc32)cc1` (single isomer, unassigned) [Compound I-997, 5-((1-(4-fluorobenzoyl)-4-hydroxypiperidin-4-yl)methyl)-1-(4-(S-methylsulfonimidoyl)phenyl)-1,5-dihydro-4H-pyrazolo[3,4-d]pyrimidin-4-one], for which the pIC50 was 5.00 to 6.00. Still for that read-out and setting: under `CS(=N)(=O)c1ccc(-n2ncc3c(=O)n(CC4(O)CCN(C(=O)c5ccc(F)cc5)CC4)cnc32)cc1` (single isomer, unassigned) [Compound I-998, 5-((1-(4-fluorobenzoyl)-4-hydroxypiperidin-4-yl)methyl)-1-(4-(S-methylsulfonimidoyl)phenyl)-1,5-dihydro-4H-pyrazolo[3,4-d]pyrimidin-4-one] stands 5.00 to 6.00; under `CN(C(=O)N1CCC(O)(Cn2cnc3c(cnn3C)c2=O)CC1)c1ccc(-c2ccccc2)cc1` [Compound I-4, N-([1,1′-biphenyl]-4-yl)-4-hydroxy-N-methyl-4-((1-methyl-4-oxo-1,4-dihydro-5H-pyrazolo[3,4-d]pyrimidin-5-yl)methyl)piperidine-1-carboxamide], less than 5.00; under `O=C(O)Cc1cccc(-n2ncc3c(=O)n(CC4(O)CCN(C(=O)c5ccccc5)CC4)cnc32)c1` [Compound I-11, 2-(3-(5-((1-Benzoyl-4-hydroxypiperidin-4-yl)methyl)-4-oxo-4,5-dihydro-1H-pyrazolo[3,4-d]pyrimidin-1-yl)phenyl)acetic acid], less than 5.00. Take `Cn1ncc2c(=O)n(CC3(O)CCN(C(=O)c4ccc(Nc5ccccc5)cc4)CC3)cnc21` [Compound I-13]: the pIC50 was 5.00 to 6.00.

Regarding `O=C(c1ccccc1)N1CCC(O)(Cn2cnc3c(cnn3-c3ccccc3O)c2=O)CC1` [Compound I-18, 5-((1-Benzoyl-4-hydroxypiperidin-4-yl)methyl)-1-(2-hydroxyphenyl)-1,5-dihydro-4H-pyrazolo[3,4-d]pyrimidin-4-one], the pIC50 is less than 5.00. For the compound `O=C(c1ccccc1)N1CCC(O)(Cn2cnc3c(cnn3-c3cccc(O)c3)c2=O)CC1` [Compound I-19], the pIC50 is 5.00 to 6.00.

As for `NCc1cccc(C(=O)N2CCC(O)(Cn3cnc4c(cnn4-c4ccccc4)c3=O)CC2)c1` [Compound I-20], the pIC50 is 5.00 to 6.00.

`O=C(c1ccc(NC2CC2)cc1)N1CCC(O)(Cn2cnc3c(cnn3-c3ccccc3)c2=O)CC1` [Compound I-23, 5-((1-(4-(Cyclopropylamino)benzoyl)-4-hydroxypiperidin-4-yl)methyl)-1-phenyl-1,5-dihydro-4H-pyrazolo[3,4-d]pyrimidin-4-one]: the pIC50 is 6.00 to 6.70.

As to `CC(C)(C)c1ccc(-n2ncc3c(=O)n(CC4(O)CCN(C(=O)C5CC5)CC4)cnc32)cc1` [Compound I-25], the pIC50 was 6.00 to 6.70. As to `Cc1cc(C)c(-n2ncc3c(=O)n(CC4(O)CCN(C(=O)C5CC5)CC4)cnc32)c(C)c1` [Compound I-26], the pIC50 is less than 5.00. Regarding `CC(C)c1ccc(-n2ncc3c(=O)n(CC4(O)CCN(C(=O)C5CC5)CC4)cnc32)cc1` [Compound I-27], the pIC50 is 5.00 to 6.00. With `O=C(C1CC1)N1CCC(O)(Cn2cnc3c(cnn3-c3ccc(C(F)(F)F)cc3)c2=O)CC1` [Compound I-28], the pIC50 was 5.00 to 6.00.

Turning to `O=C(C1CC1)N1CCC(O)(Cn2cnc3c(cnn3C3CCCCC3)c2=O)CC1` [Compound I-29], the pIC50 is less than 5.00.

Consider `O=C(C1CC1)N1CCC(O)(Cn2cnc3c(cnn3-c3cccnc3)c2=O)CC1` [Compound I-30], for which the pIC50 was 5.00 to 6.00. Regarding `CS(=O)(=O)c1ccc(-n2ncc3c(=O)n(CC4(O)CCN(C(=O)C5CC5)CC4)cnc32)cc1` [Compound I-31], the pIC50 was 5.00 to 6.00. Consider `O=C(C1CC1)N1CCC(O)(Cn2cnc3c(cnn3-c3ccc(Cl)c(Cl)c3)c2=O)CC1` [Compound I-33], for which the pIC50 is 5.00 to 6.00.

Turning to `O=C(C1CC1)N1CCC(O)(Cn2cnc3c(cnn3-c3cccc(C(F)(F)F)c3)c2=O)CC1` [Compound I-34], the pIC50 was less than 5.00.

With `O=C(C1CC1)N1CCC(O)(Cn2cnc3c(cnn3-c3ccc(Cl)cc3)c2=O)CC1` [Compound I-35], the pIC50 was 5.00 to 6.00. Consider `O=C(C1CC1)N1CCC(O)(Cn2cnc3c(cnn3-c3ccc(F)cc3)c2=O)CC1` [Compound I-38], for which the pIC50 is 5.00 to 6.00.

In the case of `C[C@@H](n1cnc2c(cnn2-c2ccc(F)cc2)c1=O)C1(O)CCN(C(=O)c2ccc(F)cc2)CC1` [Compound I-44], the pIC50 was 5.00 to 6.00.

On to `C=CS(=O)(=O)Nc1ccccc1-c1ccc(C(=O)N2CCC(O)(Cn3cnc4c(cnn4C)c3=O)CC2)cc1` [Compound I-45, N-(4′-(4-Hydroxy-4-((1-methyl-4-oxo-1,4-dihydro-5H-pyrazolo[3,4-d]pyrimidin-5-yl)methyl)piperidine-1-carbonyl)-[1,1′-biphenyl]-2-yl)ethenesulfonamide], for which the pIC50 was 6.00 to 6.70.

Take `O=C(c1ccccc1)N1CCC(O)(Cn2cnc3c(ccn3-c3ccc(F)cc3)c2=O)CC1` [Compound I-48]: the pIC50 was 5.00 to 6.00.

Take `NCc1cccc(-n2ccc3c(=O)n(CC4(O)CCN(C(=O)c5ccc(F)cc5)CC4)cnc32)c1` [Compound I-51, 7-(3-(Aminomethyl)phenyl)-3-((1-(4-fluorobenzoyl)-4-hydroxypiperidin-4-yl)methyl)-3,7-dihydro-4H-pyrrolo[2,3-d]pyrimidin-4-one]: the pIC50 was 5.00 to 6.00.
